Measured values: publication PMC5896380, “Selective imaging of cathepsin L in breast cancer by fluorescent activity-based probes” (Chemical Science, 2018)
Non-standard residues stand in square brackets, D forms with d. *: point of attachment. Phe(3,4-Cl2) = N[C@@H](Cc1ccc(Cl)c(Cl)c1)C(=O)O; Phe(F5) = N[C@@H](Cc1c(F)c(F)c(F)c(F)c1F)C(=O)O; Phe(3,4-F2) = N[C@@H](Cc1ccc(F)c(F)c1)C(=O)O; Phe(2-F) = N[C@@H](Cc1ccccc1F)C(=O)O; ACC = NC(=O)Cc1cc(=O)oc2cc(N*)ccc12; Met(O) = CS(=O)CC[C@H](N)C(=O)O; Tic = O=C(O)[C@@H]1Cc2ccccc2CN1; Orn = NCCC[C@H](N)C(=O)O; Dab = NCC[C@H](N)C(=O)O

Experiments:
Assay type in all cases: biochemical
cathepsin K [1] = target: T1, cathepsin K (Homo sapiens, UniProt P43235); assay: kobs/I of activity-based probes, cathepsin K; details: Fig. 6A; pseudo-first order, probe at least 5-fold excess over cathepsin, 100 μM ACC substrate; pH 5.5, 37 °C; triplicate, SD below 20%
T1 construct: made in house
T1 sequence (P43235 115-329): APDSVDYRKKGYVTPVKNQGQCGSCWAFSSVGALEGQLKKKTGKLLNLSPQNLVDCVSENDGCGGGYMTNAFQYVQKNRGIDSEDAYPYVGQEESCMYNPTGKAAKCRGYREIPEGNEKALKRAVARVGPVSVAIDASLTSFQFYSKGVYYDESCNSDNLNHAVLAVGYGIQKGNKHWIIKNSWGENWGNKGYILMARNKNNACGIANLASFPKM
Procedure: (§1) All kinetic experiments were performed using fMax (Molecular Devices) and CLARIOStar (BMG LABTECH) spectrofluorimeters operating in kinetic mode using 96-well plates. ACC-labeled substrates were screened using 355 nm and 460 nm wavelengths (excitation and emission, respectively). […] The buffer was prepared at room temperature and the enzyme kinetic studies were performed at 37 °C.
(§2) For the kinetic studies, five recombinant human cathepsins (B, L, V, K and S) were expressed and purified and active site titrated using an E64 inhibitor. The kobs/I parameter was measured under pseudo-first order kinetic conditions, as described.[40] The cathepsin of interest was mixed with various concentrations of probe (at least 5-fold excess over cathepsin) and 100 μM ACC-fluorescence substrate. The experiments were repeated at least three times, and the results are presented as an average. The SDs were below 20%.

cathepsin B [2] = target: T2, cathepsin B (Homo sapiens, UniProt P07858); assay: kobs/I of activity-based probes, cathepsin B; details: Fig. 6A; pseudo-first order, probe at least 5-fold excess over cathepsin, 100 μM ACC substrate; pH 5.5, 37 °C; triplicate, SD below 20%
T2 construct: made in house
Procedure: as §1, §2

cathepsin S [3] = target: T3, cathepsin S (Homo sapiens, UniProt P25774); assay: kobs/I of activity-based probes, cathepsin S; details: Fig. 6A; pseudo-first order, probe at least 5-fold excess over cathepsin, 100 μM ACC substrate; pH 5.5, 37 °C; triplicate, SD below 20%
T3 construct: made in house
T3 sequence (P25774 115-331): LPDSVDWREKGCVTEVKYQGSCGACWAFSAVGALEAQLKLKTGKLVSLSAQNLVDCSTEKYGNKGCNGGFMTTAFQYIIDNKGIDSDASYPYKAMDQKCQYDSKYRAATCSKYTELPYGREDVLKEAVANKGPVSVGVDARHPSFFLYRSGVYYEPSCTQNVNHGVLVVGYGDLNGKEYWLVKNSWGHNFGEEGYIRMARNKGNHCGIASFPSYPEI
Procedure: as §1, §2

cathepsin V [4] = target: T4, cathepsin V (Homo sapiens, UniProt O60911); assay: kobs/I of activity-based probes, cathepsin V; details: Fig. 6A; pseudo-first order, probe at least 5-fold excess over cathepsin, 100 μM ACC substrate; pH 5.5, 37 °C; triplicate, SD below 20%
T4 construct: made in house
T4 sequence (O60911 114-334): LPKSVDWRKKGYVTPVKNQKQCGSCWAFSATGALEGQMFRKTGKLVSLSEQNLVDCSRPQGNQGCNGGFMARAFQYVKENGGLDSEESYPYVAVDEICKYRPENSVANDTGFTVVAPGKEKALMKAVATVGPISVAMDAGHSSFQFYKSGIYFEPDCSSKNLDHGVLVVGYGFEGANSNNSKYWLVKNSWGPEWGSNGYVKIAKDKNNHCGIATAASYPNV
Procedure: as §1, §2

cathepsin L [5] = target: T5, cathepsin L (Homo sapiens, UniProt P07711); assay: kobs/I of activity-based probes, cathepsin L; details: Fig. 6A; pseudo-first order, probe at least 5-fold excess over cathepsin, 100 μM ACC substrate; pH 5.5, 37 °C; triplicate, SD below 20%
T5 construct: made in house
T5 sequence (P07711 114-333): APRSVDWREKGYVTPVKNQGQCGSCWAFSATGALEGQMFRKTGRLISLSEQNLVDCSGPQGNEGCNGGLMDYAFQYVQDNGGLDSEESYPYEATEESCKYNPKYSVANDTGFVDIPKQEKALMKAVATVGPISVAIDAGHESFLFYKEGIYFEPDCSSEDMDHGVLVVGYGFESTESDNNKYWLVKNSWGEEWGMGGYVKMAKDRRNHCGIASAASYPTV
Procedure: as §1, §2

cathepsin L [6] = target: T5, cathepsin L; assay: Substrate selectivity screening, rate of hydrolysis, cathepsin L; details: Table S4; substrate 100µM, cathepsin 5nM; pH 5.5, 37 °C; average of at least three screenings
Procedure: as §1
(§3) All potentially selective cathepsin L substrates were tested for their selectivity against a panel of five different cathepsins, containing cathepsins L, V, S, K and […], at concentrations of 2 μM and 100 μM. To obtain reliable results the concentration of each cathepsin was 5 nM. Substrate hydrolysis was carried out for 10 min (for cathepsin L) and for up to 60 min (for other cathepsins). Hydrolysis rates (RFU s^–1) are presented as average values from at least three screenings.

cathepsin S [7] = target: T3, cathepsin S; assay: Substrate selectivity screening, rate of hydrolysis, cathepsin S; details: Table S4; substrate 100µM, cathepsin 5nM; pH 5.5, 37 °C; average of at least three screenings
Procedure: as §1, §3

cathepsin V [8] = target: T4, cathepsin V; assay: Substrate selectivity screening, rate of hydrolysis, cathepsin V; details: Table S4; substrate 100µM, cathepsin 5nM; pH 5.5, 37 °C; average of at least three screenings
Procedure: as §1, §3

cathepsin B [9] = target: T2, cathepsin B; assay: Substrate selectivity screening, rate of hydrolysis, cathepsin B; details: Table S4; substrate 100µM, cathepsin 5nM; pH 5.5, 37 °C; average of at least three screenings
Procedure: as §1, §3

cathepsin K [10] = target: T1, cathepsin K; assay: Substrate selectivity screening, rate of hydrolysis, cathepsin K; details: Table S4; substrate 100µM, cathepsin 5nM; pH 5.5, 37 °C; average of at least three screenings
Procedure: as §1, §3

cathepsin L [11] = target: T5, cathepsin L; assay: Kinetic parameters of ACC substrates with cathepsin L; details: pH 5.5, 37 °C, cathepsin L 0.1–0.5 nM, SD below 15%
Procedure: as §1
(§4) Classic substrate velocity plots were analyzed according to Michaelis–Menten kinetics and a detailed protocol for the determination of kinetic parameters for ACC-tagged substrates is found elsewhere.[56] […] Experiments were repeated at least three times and results are presented as an average. The SDs were below 15%.

cathepsin V [12] = target: T4, cathepsin V; assay: Kinetic parameters of ACC substrates with cathepsin V; details: Fig. 5B; pH 5.5, 37 °C; cathepsin V 10–20 nM; triplicate, SD below 15%
Procedure: as §1, §4

cathepsin K [13] = target: T1, cathepsin K; assay: Kinetic parameters of ACC substrates with cathepsin K; details: Fig. 5B; pH 5.5, 37 °C; cathepsin K 5–20 nM; triplicate, SD below 15%
Procedure: as §1, §4

cathepsin B [14] = target: T2, cathepsin B; assay: Kinetic parameters of ACC substrates with cathepsin B; details: Fig. 5B; pH 5.5, 37 °C; cathepsin B 4–15 nM; triplicate, SD below 15%
Procedure: as §1, §4

cathepsin S [15] = target: T3, cathepsin S; assay: Kinetic parameters of ACC substrates with cathepsin S; details: Fig. 5B; pH 5.5, 37 °C; cathepsin S 5–20 nM; triplicate, SD below 15%
Procedure: as §1, §4

Row | Substance | Relative substrate activity (rate of hydrolysis), cathepsin L (cathepsin L [6]) [RFU/s] | Relative substrate activity (rate of hydrolysis), cathepsin S (cathepsin S [7]) [RFU/s] | Relative substrate activity (rate of hydrolysis), cathepsin V (cathepsin V [8]) [RFU/s] | Relative substrate activity (rate of hydrolysis), cathepsin B (cathepsin B [9]) [RFU/s] | Relative substrate activity (rate of hydrolysis), cathepsin K (cathepsin K [10]) [RFU/s] | also measured
1 | BODIPYFL-6-ahx-Ala-Arg-Leu-Arg-AOMK [MP-pc2, BDPFL-6-ahx-Ala-Arg-Leu-Arg-AOMK, BODIPY-FL-labeled pan-cathepsin probe] |  |  |  |  |  | kobs/I Cath-K (cathepsin K [1]): 350 M⁻¹ s⁻¹; kobs/I Cath-B (cathepsin B [2]): 23,200 M^-1s^-1; kobs/I Cath-S (cathepsin S [3]): 18,500 M^-1s^-1; kobs/I Cath-V (cathepsin V [4]): 9,800 M^-1s^-1; kobs/I Cath-L (cathepsin L [5]): 8,200 M^-1s^-1
2 | biotin-6-ahx-His-DThr-Phe(F5)-Arg-AOMK [MP-cL1] |  |  |  |  |  | kobs/I Cath-K (cathepsin K [1]): < 100 M⁻¹ s⁻¹; kobs/I Cath-B (cathepsin B [2]): 1,900 M^-1s^-1; kobs/I Cath-S (cathepsin S [3]): < 100 M⁻¹ s⁻¹; kobs/I Cath-V (cathepsin V [4]): 780 M⁻¹ s⁻¹; kobs/I Cath-L (cathepsin L [5]): 26,600 M^-1s^-1
3 | Ac-HRFR-{ACC} (SMILES CC(=O)N[C@@H](Cc1c[nH]cn1)C(=O)N[C@@H](CCCNC(=N)N)C(=O)N[C@@H](Cc1ccccc1)C(=O)N[C@@H](CCCNC(=N)N)C(=O)Nc1ccc2c(CC(N)=O)cc(=O)oc2c1) [reference compound] | 875 | 40.3 | 224 | 272 | 24.5 | kcat/KM (cathepsin L [11]; Fig. 4B, ACC substrates, 100 mM sodium acetate, 100 mM NaCl, 10 mM DTT, 1 mM EDTA, average of at least three): 13,050,000 M^-1s^-1
4 | Ac-A[dK]K(Ac)R-{ACC} (SMILES CC(=O)NCCCC[C@H](NC(=O)[C@@H](CCCCN)NC(=O)[C@H](C)NC(C)=O)C(=O)N[C@@H](CCCNC(=N)N)C(=O)Nc1ccc2c(CC(N)=O)cc(=O)oc2c1) | 25.3 | 0.0 | 0.0 | 16.9 | 1.2 | 
5 | Ac-Pip-DLeu-Phe(3,4-F2)-Arg-ACC | 699 | 7.8 | 103 | 9.4 | 1.2 | 
6 | Ac-H[dV][Phe(F5)]R-{ACC} (SMILES CC(=O)N[C@@H](Cc1c[nH]cn1)C(=O)N[C@@H](C(=O)N[C@@H](Cc1c(F)c(F)c(F)c(F)c1F)C(=O)N[C@@H](CCCNC(=N)N)C(=O)Nc1ccc2c(CC(N)=O)cc(=O)oc2c1)C(C)C) | 706 | 0.0 | 4.4 | 0.7 | 1.1 | kcat/KM Cath-V (cathepsin V [12]): 539 M⁻¹ s⁻¹; kcat/KM Cath-L (cathepsin L [11]; Fig. 5B, triplicate): 747,400 M^-1s^-1; kcat/KM Cath-K (cathepsin K [13]): < 10 M⁻¹ s⁻¹; kcat/KM Cath-B (cathepsin B [14]): 252 M⁻¹ s⁻¹; kcat/KM Cath-S (cathepsin S [15]): < 10 M⁻¹ s⁻¹
7 | biotin-6-ahx-His-DThr-Phe(F5)-Lys-AOMK [MP-cL2] |  |  |  |  |  | kobs/I Cath-K (cathepsin K [1]): < 100 M⁻¹ s⁻¹; kobs/I Cath-B (cathepsin B [2]): 1,250 M^-1s^-1; kobs/I Cath-S (cathepsin S [3]): < 100 M⁻¹ s⁻¹; kobs/I Cath-V (cathepsin V [4]): 360 M⁻¹ s⁻¹; kobs/I Cath-L (cathepsin L [5]): 10,500 M^-1s^-1
8 | Cy3-6-ahx-Ala-Arg-Leu-Arg-AOMK [MP-pc3, Cy3-labeled pan-cathepsin probe] |  |  |  |  |  | kobs/I Cath-K (cathepsin K [1]): 1,350 M^-1s^-1; kobs/I Cath-B (cathepsin B [2]): 75,400 M^-1s^-1; kobs/I Cath-S (cathepsin S [3]): 69,000 M^-1s^-1; kobs/I Cath-V (cathepsin V [4]): 6,700 M^-1s^-1; kobs/I Cath-L (cathepsin L [5]): 16,900 M^-1s^-1

Further lines, with some results ahead:

Row | Relative substrate activity (rate of hydrolysis), cathepsin L (cathepsin L [6]) [RFU/s] | Relative substrate activity (rate of hydrolysis), cathepsin S (cathepsin S [7]) [RFU/s] | Relative substrate activity (rate of hydrolysis), cathepsin V (cathepsin V [8]) [RFU/s] | Relative substrate activity (rate of hydrolysis), cathepsin B (cathepsin B [9]) [RFU/s] | Relative substrate activity (rate of hydrolysis), cathepsin K (cathepsin K [10]) [RFU/s] | Substance | also measured
9 | 153 | 0.0 | 0.0 | 0.0 | 0.3 | Ac-H[dL][Phe(F5)][Orn]-{ACC} (SMILES CC(=O)N[C@@H](Cc1c[nH]cn1)C(=O)N[C@H](CC(C)C)C(=O)N[C@@H](Cc1c(F)c(F)c(F)c(F)c1F)C(=O)N[C@@H](CCCN)C(=O)Nc1ccc2c(CC(N)=O)cc(=O)oc2c1) | 
10 | 844 | 3.4 | 346 | 189 | 4.6 | Ac-A[Orn][Phe(3,4-Cl2)]R-{ACC} (SMILES CC(=O)N[C@@H](C)C(=O)N[C@@H](CCCN)C(=O)N[C@@H](Cc1ccc(Cl)c(Cl)c1)C(=O)N[C@@H](CCCNC(=N)N)C(=O)Nc1ccc2c(CC(N)=O)cc(=O)oc2c1) | 
11 | 474 | 12.7 | 30.5 | 22.3 | 0.0 | Ac-H[dR][Phe(3,4-F2)]L-{ACC} (SMILES CC(=O)N[C@@H](Cc1c[nH]cn1)C(=O)N[C@H](CCCNC(=N)N)C(=O)N[C@@H](Cc1ccc(F)c(F)c1)C(=O)N[C@@H](CC(C)C)C(=O)Nc1ccc2c(CC(N)=O)cc(=O)oc2c1) | 
12 | 825 | 2.8 | 28.4 | 41.2 | 0.2 | Ac-[Tic][Dab][Phe(3,4-F2)]R-{ACC} (SMILES CC(=O)N1Cc2ccccc2C[C@H]1C(=O)N[C@@H](CCN)C(=O)N[C@@H](Cc1ccc(F)c(F)c1)C(=O)N[C@@H](CCCNC(=N)N)C(=O)Nc1ccc2c(CC(N)=O)cc(=O)oc2c1) | 
13 | 658 | 21.1 | 129 | 76.2 | 0.2 | Ac-[Met(O)][dR][Phe(2-F)]R-{ACC} (SMILES CC(=O)N[C@@H](CCS(C)=O)C(=O)N[C@H](CCCNC(=N)N)C(=O)N[C@@H](Cc1ccccc1F)C(=O)N[C@@H](CCCNC(=N)N)C(=O)Nc1ccc2c(CC(N)=O)cc(=O)oc2c1) | 
14 | 901 | 4.4 | 306 | 65.1 | 1.5 | Ac-H[dL][Phe(3,4-Cl2)]R-{ACC} (SMILES CC(=O)N[C@@H](Cc1c[nH]cn1)C(=O)N[C@H](CC(C)C)C(=O)N[C@@H](Cc1ccc(Cl)c(Cl)c1)C(=O)N[C@@H](CCCNC(=N)N)C(=O)Nc1ccc2c(CC(N)=O)cc(=O)oc2c1) | 
